Laboratory results: ChEMBL document CHEMBL4699537, “Chalcones as Modulators of Neutrophil Oxidative Burst under Physiological and High Glucose Conditions” (J Nat Prod, 2020)
One block for each molecule: values may come before it.

Key:
Neutrophil [1] = assay: Effect on cell viability in human neutrophils assessed as decrease in cell viability at 100 uM after 1 hr by Propidium staining based flow cytometric analysis
[2] = Inhibition of PMA-induce ROS/RNS generation in human neutrophils measured up to 30 mins in presence of 5.5 mM glucose by luminol-amplified chemiluminescence method; type: functional, tissue-based; conditions: Neutrophil, 0.5 h
[3] = Inhibition of PMA-induce ROS/RNS generation in human neutrophils measured up to 30 mins in presence of 30 mM glucose by luminol-amplified chemiluminescence method; type: functional, tissue-based; conditions: Neutrophil, 0.5 h
Neutrophil [4] = assay: Effect on cell viability in human neutrophils assessed as decrease in cell viability at 12.5 uM after 1 hr by Propidium staining based flow cytometric analysis
Neutrophil [5] = assay: Effect on cell viability in human neutrophils assessed as decrease in cell viability at 25 uM after 1 hr by Propidium staining based flow cytometric analysis
[6] = Inhibition of PMA-induce ROS/RNS generation in human neutrophils at 25 uM measured up to 30 mins in presence of 5.5 mM glucose by luminol-amplified chemiluminescence method relative to control; type: functional, Neutrophil; conditions: time min <=30
[7] = Inhibition of PMA-induce ROS/RNS generation in human neutrophils at 25 uM measured up to 30 mins in presence of 30 mM glucose by luminol-amplified chemiluminescence method relative to control; type: functional, Neutrophil; conditions: time min <=30
Neutrophil [8] = assay: Effect on cell viability in human neutrophils assessed as decrease in cell viability at 3.1 uM after 1 hr by Propidium staining based flow cytometric analysis
[9] = Inhibition of PMA-induce ROS/RNS generation in human neutrophils at 6.3 uM measured up to 30 mins in presence of 5.5 mM glucose by luminol-amplified chemiluminescence method relative to control; type: functional, Neutrophil; conditions: time min <=30
[10] = Inhibition of PMA-induce ROS/RNS generation in human neutrophils at 3.1 uM measured up to 30 mins in presence of 30 mM glucose by luminol-amplified chemiluminescence method relative to control; type: functional, Neutrophil; conditions: time min <=30
Neutrophil [11] = assay: Effect on cell viability in human neutrophils assessed as decrease in cell viability at 50 uM after 1 hr by Propidium staining based flow cytometric analysis
[12] = Inhibition of PMA-induce NET production in human neutrophils at 50 uM incubated for 30 mins in presence of 30 mM glucose by SytoxGreen staining based fluorescence assay relative to control; type: functional; conditions: Neutrophil, 0.5 h
Neutrophil [13] = assay: Inhibition of PMA-induce NET production in human neutrophils incubated for 30 mins in presence of 30 mM glucose by SytoxGreen staining based fluorescence assay; type: functional, tissue-based
[14] = Ratio of IC50 for inhibition of PMA-induce ROS/RNS generation in human neutrophils measured up to 30 mins in presence of 30 mM glucose to IC50 for inhibition of PMA-induce ROS/RNS generation in human neutrophils measured up to 30 mins in presence of 5.5 mM glucose; type: functional, Neutrophil
Neutrophil [15] = assay: Effect on cell viability in human neutrophils assessed as decrease in cell viability at 6.3 uM after 1 hr by Propidium staining based flow cytometric analysis
[16] = Inhibition of PMA-induce ROS/RNS generation in human neutrophils at 6.3 uM measured up to 30 mins in presence of 30 mM glucose by luminol-amplified chemiluminescence method relative to control; type: functional, Neutrophil; conditions: time min <=30
Neutrophil [17] = assay: Effect on cell viability in human neutrophils assessed as death cell at 6.3 uM in presence of 5.5 mM glucose after 1 hr by Propidium staining based flow cytometric analysis (reference value: 0.5 +/- 0.07 %)
Neutrophil [18] = assay: Effect on cell viability in human neutrophils assessed as death cell at 6.3 uM in presence of 30 mM glucose after 1 hr by Propidium staining based flow cytometric analysis (reference value: 0.8 +/- 0.13 %)
[19] = Inhibition of PMA-induce ROS/RNS generation in human neutrophils at 12.5 uM measured up to 30 mins in presence of 5.5 mM glucose by luminol-amplified chemiluminescence method relative to control; type: functional, Neutrophil; conditions: time min <=30
[20] = Inhibition of PMA-induce ROS/RNS generation in human neutrophils at 12.5 uM measured up to 30 mins in presence of 30 mM glucose by luminol-amplified chemiluminescence method relative to control; type: functional, Neutrophil; conditions: time min <=30
[21] = Inhibition of PMA-induce ROS/RNS generation in human neutrophils at 3.1 uM measured up to 30 mins in presence of 5.5 mM glucose by luminol-amplified chemiluminescence method relative to control; type: functional, Neutrophil; conditions: time min <=30
Neutrophil [22] = assay: Effect on cell viability in human neutrophils assessed as death cell at 100 uM in presence of 5.5 mM glucose after 1 hr by Propidium staining based flow cytometric analysis (reference value: 0.5 +/- 0.07 %)
Neutrophil [23] = assay: Effect on cell viability in human neutrophils assessed as death cell at 100 uM in presence of 30 mM glucose after 1 hr by Propidium staining based flow cytometric analysis (reference value: 0.8 +/- 0.13 %)

- IC50 [2]: 15 µM
- IC50 [3]: 20 µM
SMILES: COc1ccc(/C=C/C(=O)c2ccccc2)cc1OC
- Activity (Neutrophil [1]): Non-Toxic

- IC50 [2]: 6.4 µM
- IC50 [3]: 7 µM
SMILES: COc1ccc(/C=C/C(=O)c2ccc(O)cc2O)cc1OC
- Activity (Neutrophil [4]): Non-Toxic

SMILES: COc1ccc(/C=C/C(=O)c2ccccc2O)cc1
- Activity (Neutrophil [5]): Non-Toxic
- Imax [6]: 50%
- Imax [7]: 32%

- IC50 [2]: 27 µM
- IC50 [3]: 22.3 µM
SMILES: O=C(/C=C/c1cccc(O)c1)c1ccccc1 [3-HYDROXY CHALCONE]
- Activity (Neutrophil [1]): Non-Toxic

SMILES: COc1cc(O)c(C(=O)/C=C/c2cc(OC)c(OC)c(OC)c2)c(OC)c1
- Activity (Neutrophil [8]): Non-Toxic
- Imax [9]: 25%
- Imax [10]: 18%

- IC50 [2]: 6.7 µM
- IC50 [3]: 5 µM
SMILES: O=C(/C=C/c1ccccc1O)c1ccccc1
- Activity (Neutrophil [11]): Non-Toxic

- IC50 [2]: 1.6 µM
- IC50 [3]: 1.5 µM
SMILES: O=C(/C=C/c1ccc(O)cc1)c1ccccc1O
- Activity (Neutrophil [11]): Non-Toxic

- IC50 [2]: 8.8 µM
- IC50 [3]: 11.6 µM
SMILES: O=C(/C=C/c1ccc(O)cc1)c1ccccc1 [4-HYDROXYCHALCONE]
- Activity (Neutrophil [11]): Non-Toxic

- IC50 [2]: 5.4 µM
- IC50 [3]: 5.3 µM
SMILES: O=C(/C=C/c1ccc(Cl)cc1)c1ccccc1 [4-CHLORO CHALCONE]
- Activity (Neutrophil [4]): Non-Toxic

- IC50 [2]: 4.4 µM
- IC50 [3]: 5 µM
SMILES: O=C(/C=C/c1ccc(O)c(O)c1)c1c(O)cc(O)cc1O [3,4,2',4',6'-PENTAHYDROXYCHALCONE]
- Activity (Neutrophil [11]): Non-Toxic
- inhibition at 50 µM [12]: 48%
- inhibition (Neutrophil [13]): Dose-dependent effect

- IC50 [2]: 5.8 µM
- IC50 [3]: 5.8 µM
SMILES: O=C(/C=C/c1ccccc1O)c1ccccc1O
- Activity (Neutrophil [5]): Non-Toxic

- IC50 [2]: 6.4 µM
- IC50 [3]: 15 µM
SMILES: COc1ccc(/C=C/C(=O)c2ccccc2O)cc1OC
- Activity (Neutrophil [11]): Non-Toxic
- Ratio IC50 [14]: 2

- IC50 [2]: 13 µM
- IC50 [3]: 12 µM
SMILES: O=C(/C=C/c1ccc(O)cc1O)c1ccccc1
- Activity (Neutrophil [5]): Non-Toxic

- IC50 [2]: 3 µM
- IC50 [3]: 5.7 µM
SMILES: COc1cccc(/C=C/C(=O)c2ccccc2O)c1
- Activity (Neutrophil [5]): Non-Toxic
- Ratio IC50 [14]: 2

- IC50 [2]: 78 µM
- IC50 [3]: 74 µM
SMILES: COc1cc(O)c(C(=O)/C=C/c2ccc(OC)c(OC)c2)c(OC)c1
- Activity (Neutrophil [1]): Non-Toxic

SMILES: COc1ccccc1/C=C/C(=O)c1ccccc1O
- Activity (Neutrophil [15]): Non-Toxic
- Imax [9]: 50%
- Imax [16]: 34%

- IC50 [2]: 3.4 µM
- IC50 [3]: 3 µM
SMILES: COc1cc(/C=C/C(=O)c2ccccc2O)cc(OC)c1OC
- Activity (Neutrophil [11]): Non-Toxic

- IC50 [2]: 1 µM
- IC50 [3]: 2 µM
SMILES: COc1cc(/C=C/C(=O)c2ccccc2O)ccc1O
- Activity (Neutrophil [17]): 0.4%
- Activity (Neutrophil [18]): 0.4%
- Activity (Neutrophil [15]): Non-Toxic

SMILES: O=C(/C=C/c1ccc(Cl)cc1Cl)c1ccccc1O
- Activity (Neutrophil [4]): Non-Toxic
- Imax [19]: 30%
- Imax [20]: 28%

SMILES: Cc1cc(C)c(/C=C/C(=O)c2ccccc2O)c(C)c1
- Activity (Neutrophil [8]): Non-Toxic
- Imax [9]: 26%
- Imax [10]: 25%

SMILES: COc1ccc(/C=C/C(=O)c2ccc(O)cc2O)cc1
- Activity (Neutrophil [4]): Non-Toxic
- Imax [19]: 46%
- Imax [20]: 44%

- IC50 [2]: 2.9 µM
- IC50 [3]: 3 µM
SMILES: O=C(/C=C/c1ccc(O)cc1O)c1ccc(O)cc1O
- Activity (Neutrophil [4]): Non-Toxic

- IC50 [2]: 2.8 µM
SMILES: Cc1cccc(/C=C/C(=O)c2ccccc2O)c1
- Activity (Neutrophil [4]): Non-Toxic
- Imax [20]: 47%
- Ratio IC50 [14]: 2

SMILES: COc1ccc(/C=C/C(=O)c2c(O)cc(OC)cc2OC)cc1 [FLAVOKAWAIN A]
- Activity (Neutrophil [8]): Non-Toxic
- Imax [21]: 13%
- Imax [10]: 19%

- IC50 [2]: 13 µM
- IC50 [3]: 27 µM
SMILES: O=C(/C=C/c1ccccc1)c1ccccc1 [CHALCONE]
- Activity (Neutrophil [22]): 0.6%
- Activity (Neutrophil [23]): 5%
- Activity (Neutrophil [11]): Non-Toxic
- Ratio IC50 [14]: 2
